{
  "source": "patent US20250313533A1",
  "about": "“QUINOLINE CARBOXYLIC ACID ESTER COMPOUND AND PREPARATION METHOD AND USE THEREOF” (priority 2019, published 2025)",
  "key": {"[1]": {"test_system": "pathogenic bacteria causing fire blight in pears", "assay": "In vitro bactericidal activity, fire blight in pears", "assay_type": "cell-based, erwinia"}, "[2]": {"test_system": "bacterial wilt in tobacco", "conditions": "seed soaking"}, "[3]": {"test_system": "pathogenic bacteria causing black rot in Chinese cabbages", "assay": "In vitro bactericidal activity, black rot in Chinese cabbages", "assay_type": "cell-based, xanthomonas"}, "[4]": {"test_system": "pathogenic bacteria causing black shank in potatoes", "assay": "In vitro bactericidal activity, black shank in potatoes", "assay_type": "cell-based"}, "[5]": {"test_system": "pathogenic bacteria causing stem rot in sweet potatoes", "assay": "In vitro bactericidal activity, stem rot in sweet potatoes", "assay_type": "cell-based, dikia"}, "[6]": {"test_system": "pathogenic bacteria causing bacterial angular leaf spot in cucumbers", "assay": "In vitro bactericidal activity, bacterial angular leaf spot in cucumbers", "assay_type": "cell-based, pseudomonas"}, "[7]": {"test_system": "soft rot in Chinese cabbages", "assay": "Field test for controlling soft rot in Chinese cabbages", "assay_type": "in vivo, Chinese cabbage", "conditions": "dose 67.5 g a.i./hm^2, 2 sprays, 7 days after the last application", "protocol": "(§1) In October 2019, tests were carried out in fields of Chinese cabbage, wild cabbage and lettuce in Tai'an, Shandong. The doses of the compounds 152 and 282 of the present disclosure (both prepared as dispersible granules with a mass fraction of 10%) used were 16.87 ga.i./hm^2 and 33.75 ga.i./hm^2, and the control agents used were 3% (by weight) wettable powder of zhongshengmycin and 33.5% (by weight) aqueous suspension of oxine-copper (both were commercially available). The dose of zhongshengmycin was 67.5 ga.i./hm^2, and the dose of oxine-copper was 337.5 ga.i./hm^2. Test and control agents were arranged in randomized blocks. Plot area was 15 m^2. Treatment was repeated 3 times. The route of application was spraying on stem and leaves. The application was performed 2 times in total at an interval of 7 days, and the efficacy investigation was performed 7 days after the last application. During the investigation, sampling was carried out at 5 points in each plot. Disease conditions of soft rot in Chinese cabbages, soft rot in lettuces and soft rot in wild cabbages were recorded according to the relevant technical standard of Pesticide Guidelines for the Field Efficacy Trials GB/T17980.114-2004, and the incidence rate of plants was calculated to further evaluate the control effect."}, "[8]": {"test_system": "soft rot in Chinese cabbages", "conditions": "sprayed cut leaves, 48 h incubation"}, "[9]": {"test_system": "pathogenic bacteria causing bacterial blight in rice", "assay": "whole plant or invertebrate", "assay_type": "cell-based, xanthomonas", "conditions": "in vitro"}, "soft rot in lettuces": {"test_system": "soft rot in lettuces", "assay": "Field test for controlling soft rot in lettuces", "assay_type": "in vivo, lettuce", "conditions": "dose 67.5 g a.i./hm^2, 2 sprays, 7 days after the last application", "protocol": "as §1"}, "[10]": {"test_system": "soft rot in wild cabbages", "assay": "Field test for controlling soft rot in wild cabbages", "assay_type": "in vivo, wild cabbage", "conditions": "dose 67.5 g a.i./hm^2, 2 sprays, 7 days after the last application", "protocol": "as §1"}, "[11]": {"test_system": "pathogenic bacteria causing bacterial wilt in cassava", "assay": "organism not typed", "assay_type": "cell-based", "conditions": "in vitro"}, "[12]": {"test_system": "pathogenic bacteria causing bacterial wilt in tobacco", "assay": "whole plant or invertebrate", "assay_type": "cell-based, ralstonia", "conditions": "in vitro"}, "[13]": {"test_system": "stem rot in sweet potatoes", "conditions": "seed soaking"}, "black shank in potatoes": {"test_system": "black shank in potatoes", "assay": "Living crops in vivo protective activity, potatoes (root irrigation)", "protocol": "Root irrigation was carried out on the potatoes for tests according to the designed concentration of the agents. The dosage for each plant was 200 mL and was kept consistent (also for the control). The black shank bacteria were inoculated on the second day after the application. The results were investigated according to the disease condition."}, "[14]": {"test_system": "fruit blotch in watermelons", "conditions": "seed soaking"}, "[15]": {"test_system": "pathogenic bacteria causing fruit blotch in watermelons", "assay": "In vitro bactericidal activity, fruit blotch in watermelons", "assay_type": "cell-based, acidovorax"}},
  "note": "Read-outs that look alike come from different tables or passages of the source.",
  "data": [
    {"substance": "zhongshengmycin [reference compound]", "values": [
      {"measurement": "inhibitory rate", "setting": "[1]; dosage 1 ppm", "result": 23, "unit": "%"},
      {"measurement": "inhibitory rate", "setting": "[1]; dosage 5 ppm", "result": 43, "unit": "%"},
      {"measurement": "efficacy against bacterial wilt in tobacco", "setting": "[2]; dosage 5 ppm", "result": 24, "unit": "%"},
      {"measurement": "efficacy against bacterial wilt in tobacco", "setting": "[2]; dosage 10 ppm", "result": 35, "unit": "%"},
      {"measurement": "inhibitory rate", "setting": "[3]; dosage 1 ppm", "result": 19, "unit": "%"},
      {"measurement": "inhibitory rate", "setting": "[3]; dosage 5 ppm", "result": 46, "unit": "%"},
      {"measurement": "inhibitory rate", "setting": "[4]; dosage 1 ppm", "result": 38, "unit": "%"},
      {"measurement": "inhibitory rate", "setting": "[4]; dosage 5 ppm", "result": 55, "unit": "%"},
      {"measurement": "inhibitory rate", "setting": "[5]; dosage 1 ppm", "result": 25, "unit": "%"},
      {"measurement": "inhibitory rate", "setting": "[5]; dosage 5 ppm", "result": 46, "unit": "%"},
      {"measurement": "inhibitory rate", "setting": "[6]; dosage 1 ppm", "result": 21, "unit": "%"},
      {"measurement": "inhibitory rate", "setting": "[6]; dosage 5 ppm", "result": 48, "unit": "%"},
      {"measurement": "Control effect (%)", "setting": "[7]", "result": 72, "unit": "%"},
      {"measurement": "efficacy against soft rot in Chinese cabbages", "setting": "[8]; dosage 5 ppm", "result": 23, "unit": "%"},
      {"measurement": "efficacy against soft rot in Chinese cabbages", "setting": "[8]; dosage 10 ppm", "result": 39, "unit": "%"},
      {"measurement": "inhibitory rate", "setting": "[9]; dosage 1 ppm", "result": 30, "unit": "%"},
      {"measurement": "inhibitory rate", "setting": "[9]; dosage 5 ppm", "result": 48, "unit": "%"},
      {"measurement": "Control effect (%)", "setting": "soft rot in lettuces", "result": 65, "unit": "%"},
      {"measurement": "Control effect (%)", "setting": "[10]", "result": 69, "unit": "%"},
      {"measurement": "inhibitory rate", "setting": "[11]; dosage 1 ppm", "result": 32, "unit": "%"},
      {"measurement": "inhibitory rate", "setting": "[11]; dosage 5 ppm", "result": 51, "unit": "%"},
      {"measurement": "inhibitory rate", "setting": "[12]; dosage 1 ppm", "result": 28, "unit": "%"},
      {"measurement": "inhibitory rate", "setting": "[12]; dosage 5 ppm", "result": 51, "unit": "%"},
      {"measurement": "efficacy against stem rot in sweet potatoes", "setting": "[13]; dosage 5 ppm", "result": 23, "unit": "%"},
      {"measurement": "efficacy against stem rot in sweet potatoes", "setting": "[13]; dosage 10 ppm", "result": 38, "unit": "%"},
      {"measurement": "efficacy against black shank in potatoes", "setting": "black shank in potatoes; dosage 5 ppm", "result": 17, "unit": "%"},
      {"measurement": "efficacy against black shank in potatoes", "setting": "black shank in potatoes; dosage 10 ppm", "result": 25, "unit": "%"},
      {"measurement": "efficacy against fruit blotch in watermelons", "setting": "[14]; dosage 5 ppm", "result": 19, "unit": "%"},
      {"measurement": "efficacy against fruit blotch in watermelons", "setting": "[14]; dosage 10 ppm", "result": 33, "unit": "%"},
      {"measurement": "inhibitory rate", "setting": "[15]; dosage 1 ppm", "result": 29, "unit": "%"},
      {"measurement": "inhibitory rate", "setting": "[15]; dosage 5 ppm", "result": 52, "unit": "%"}
    ]}
  ]
}
